Article PMC6095874, “Discovery of cationic nonribosomal peptides as Gram-negative antibiotics through global genome mining” (Nature Communications, 2018)
In brackets after ≈: the same amount, converted by molar mass. Read-outs that look alike come from different tables or passages of the source. Where a SMILES comes first, the peptide text is derived from it. Bridges are numbered along the chain shown (N, C = ends). [ ]: non-standard residue; d: D form. The star is where a group is joined. ξ: configuration not given here. Hexanoyl(4ξ-Me) = CCC(C)CCC(=O)*; dOrn = NCCC[C@@H](N)C(=O)O; Orn = NCCC[C@H](N)C(=O)O

Columns and labels:
E. coli = experiment: Lysis assay; type: cell-based, Escherichia coli; settings: ten times the MIC, culture OD600 = 1.0, 24 h
Description: An overnight culture of E. coli TOP10 cells was diluted 1:10,000 in MHB and incubated at 37 °C with agitation at 180 rpm for 2 h (early exponential). The bacteria were then challenged with brevicidine (20 μg mL^−1), laterocidine (20 μg mL^−1), or polymyxin B (10 μg mL^−1) at ten times the MIC at room temperature without shaking. An untreated sample of cells was used as a negative control. At intervals, 10 μL aliquots were removed, centrifuged at 10,000 × g for 1 min and resuspended in 1.0 mL of sterile PBS. Tenfold serially diluted suspensions were plated on MHB agar plates and incubated at 37 °C overnight. Colonies were counted and the number of c.f.u. per mL was calculated. For analysis of lysis, 300 μL of culture (OD600 = 1.0) were treated with antibiotics at ten times the MIC for 24 h. Experiments were performed in triplicate.

Saccharomyces cerevisiae = type: cell-based; settings: 24 h
E. coli ATCC 25922 = experiment: Neutropenic mouse thigh infection model; type: in vivo
Description: Given the low risk of resistance and the attractive mode of action of 1–2, an animal efficacy study was then performed in a mouse thigh model. Mice were intramuscularly infected with 1.50 × 10^6 c.f.u. of E. coli ATCC 25922. Two hours post infection, brevicidine (30 mg kg^−1) or laterocidine (15 mg kg^−1) was subcutaneously injected at two doses. […] In particular, compound 1 was highly efficacious in mice infected with E. coli and caused a 5 log10 reduction in c.f.u. in the thigh compared to the vehicle control after 24 h (Fig. 4f).
In vivo activities of brevicidine and laterocidine were tested using the mouse thigh infection model. Animal studies were performed by Pharmacology Discovery Services Taiwan Ltd. in general accordance with standard guidelines on animal welfare[38] in an AAALAC-accredited facility. The protocol was reviewed and approved by the Institutional Animal Care and Use Committee. Groups of five female-specific pathogen-free ICR (CD-1) mice weighing 22 ± 2 g (~5 weeks of age) were used. Animals were immunosuppressed with two intraperitoneal injections of cyclophosphamide, the first at 150 mg kg^−1 4 days before infection (day −4) and the second at 100 mg kg^−1 1 day before infection (day −1). On day 0, animals were inoculated intramuscularly (0.1 mL per thigh) in the right thigh with an E. coli ATCC 25922 suspension. Vehicle (10% DMSO, 1% Tween 80, 0.9% NaCl) and antibiotics were then subcutaneously injected 2 and 8 h later. Due to the limited availability of compounds 1–2, only one concentration of 1 (30 mg kg^−1) or 2 (15 mg kg^−1) was used in the present study. Precisely 26 h after inoculation, animals were euthanized by CO2 asphyxiation before their right thigh muscles were harvested. The removed muscles were homogenized in 5 mL of PBS, pH 7.4, with a Polytron homogenizer. Homogenates in the amount of 0.1 mL were used for serial tenfold dilutions and plated onto a nutrient agar medium for colony count (in c.f.u. g^−1) determination. No randomization or blinding was necessary for the animal infection models, and no samples were excluded.

[1] = test system: Staphylococcus aureus (MRSA); type: cell-based; settings: 24 h
Description: (§1) MIC was determined by broth microdilution according to CLSI guidelines. The test medium for most species was Mueller–Hinton broth (MHB). Bacteria were grown overnight to early stationary phase and adjusted in MHB to 5.0 × 10^5 c.f.u. mL^−1 in the wells of 96-well microtiter plates (Falcon® 96-Well Flat-Bottom Microplate, Tissue Culture-Treated), mixed with varying concentrations of test compounds and incubated at 37 °C for 24 h. Cell growth was evaluated by measuring the optical density at 595 nm (Thermo Scientific Multiskan FC multiplate photometer) (Waltham, MA, USA), and the MIC was defined as the lowest compound concentration at which no bacterial growth was observed. MHBs containing 10% fetal bovine serum (Gibco), 21 mM MgCl, or 1.0 mg mL^−1 LPS (lipopolysaccharides from E. coli O55:B5, Sigma-Aldrich) was used to test their inhibitory effects.

[2] = test system: Pseudomonas aeruginosa PAO1; type: cell-based; settings: Supplementary Table 1; Pa = Pseudomonas aeruginosa PAO1
Description: as §1

Gram-negative bacteria = type: cell-based
Description: as §1

E. coli TOP10 cells = experiment: Bacterial growth kinetics; type: cell-based, Escherichia coli; settings: OD600 of cells exposed to antibiotics (Fig. 4: two times the MIC)
Description: A single fresh colony of E. coli TOP10 cells was inoculated into MHB (5 mL) and grown with shaking at 225 rpm overnight. The bacteria were diluted to 1 × 10^5 c.f.u. mL^−1 in fresh MHB, grown […] to early log-phase (OD600 = 0.15) and treated with the antibiotics of interest in the wells of a 96-well plate. Final antibiotic concentrations varied from one to eight times the MIC. The plate was then incubated at 30 °C overnight, with OD600 measurements taken every 30 s.

Structure (SMILES): CCC(C)CCC(=O)N[C@H](CC(N)=O)C(=O)N[C@H](Cc1ccc(O)cc1)C(=O)N[C@H](Cc1c[nH]c2ccccc12)C(=O)N[C@H](CCCN)C(=O)N[C@@H](CCCN)C(=O)NCC(=O)N[C@H](CCCN)C(=O)N[C@@H](Cc1c[nH]c2ccccc12)C(=O)N[C@@H]1C(=O)N[C@@H]([C@@H](C)CC)C(=O)NCC(=O)N[C@@H](CO)C(=O)O[C@@H]1C (stereo partly drawn) [Compound 1, brevicidine] ({Hexanoyl(4ξ-Me)}-[dN][dY][dW][dOrn][Orn]G[dOrn]WTIGS; ester 9-C)
- lysis of E. coli cells (E. coli): completely lysed
- MIC (Saccharomyces cerevisiae): >64 µg/mL
- reduction in c.f.u. in the thigh compared to the vehicle control (E. coli ATCC 25922; 30 mg kg^−1 subcutaneous at 2 and 8 h post infection, neutropenic ICR mice (n = 5), after 24 h): 5 log10
- viable bacteria in thigh (E. coli ATCC 25922; brevicidine 30 mg kg^−1 twice s.c., five mice, after 26 h, Mann–Whitney P < 0.01): reduced number of viable bacteria
- MIC [1]: >64 µg/mL
- MIC, Pa [2]: 1 µg/mL (≈ 0.658 µM)
- MIC values against Gram-negative bacteria (Gram-negative bacteria; 24 h): 0.66 to 10.5 µM
- MIC values against Gram-negative bacteria (Gram-negative bacteria; range over Gram-negative strains incl. P. aeruginosa and colistin-resistant E. coli): 1 to 16 µg/mL
- growth kinetics of E. coli cells exposed to compound (E. coli TOP10 cells): grew at a reduced rate for 30 min
